Results published in patent US20090285887A1, “Pharmaceutical Composition Comprising A Plurality of Mini-Tablets Comprising A Factor XA Inhibitor” (priority 2006, published 2009).

Assay: Preliminary pharmacokinetic analysis of absorption throughout the GI tract
Assay type: in vivo
Excerpt: In one aspect of the invention, the pharmaceutical composition enables the Factor Xa inhibitor to be absorbed throughout the GI tract, i.e. in the duodenum (proximal small intestine), ileum (distal small intestine) and cecum/colon. […] Accordingly, this comprises a further aspect of the invention.

absorption throughout the GI tract: may be absorbed throughout the GI tract
SMILES: C[C@@H](C(=O)N1CCOCC1)N1CC[C@H](NS(=O)(=O)/C=C/c2ccc(Cl)s2)C1=O [Compound A, (E)-2-(5-chlorothien-2-yl)-N-{(3S)-1-[(1S)-1-methyl-2-morpholin-4-yl-2-oxoethyl]-2-oxopyrrolidin-3-yl}ethenesulfonamide]
